Results as given in patent publication US20050261129A1, “Method of protecting plants from bacterial and fungal diseases” (priority 2003, published 2005).

Tested on: tomato seedlings
Assay: Tomato SAR trial, greenhouse foliar vigour (phytotoxicity) ratings (Example 9)
Settings: 0, severe foliar injury; 10, foliage green in excellent health; each treatment followed by BONZI 5 ppm
Method: Tomatoes were seeded in a green house and the SAR compositions applied three separate times, first as a drench nine days after seeding, the second at the 2-leaf stage 15 days after seeding, and finally as a foliar application in the filed approximately two months from seeding. Each treatment was followed up by a 5 ppm application of a plant growth regulator comprising paclobutrazol available under the name BONZI from Syngenta, Greensboro, N.C. […] This procedure was replicated four times in a randomized complete block design. […] Phytotoxicity ratings were also taken in green house prior to transplanting.

Structure (SMILES) | Greenhouse Evaluations: Foliar Vigour Ratings (0-10)
COC(=O)[C@@]1(C)CC[C@]2(C(=O)O)CC[C@]3(C)C(=CCC4[C@@]5(C)CCC(O)[C@@](C)(CO)C5CC[C@]43C)C2C1 (stereo partly drawn) [Sapogenin 1, Phytolaccagenic acid] | 5.7
CC1(C)CC[C@]2(C(=O)O)CC[C@]3(C)C(=CC[C@@H]4[C@@]5(C)CC[C@H](O)[C@@](C)(CO)[C@@H]5CC[C@]43C)[C@@H]2C1 [Sapogenin 2, Hederagenin] | 5.3
CC1(C)CC[C@]2(C(=O)O)CC[C@]3(C)C(=CC[C@@H]4[C@@]5(C)CC[C@H](O)C(C)(C)[C@@H]5CC[C@]43C)[C@@H]2C1 [Sapogenin 3, Oleanolic acid] | 4.7
COC(=O)[C@@]1(C)CC[C@]2(C(=O)O)CC[C@]3(C)C(=CCC4[C@@]5(C)CCC(O)[C@@](C)(CO)C5CC[C@]43C)C2C1 (stereo partly drawn) [Sapogenin 4, Phytolaccagenic acid] | 4.3
CC1(C)CC[C@]2(C(=O)O)CC[C@]3(C)C(=CC[C@@H]4[C@@]5(C)CC[C@H](O)[C@@](C)(CO)[C@@H]5CC[C@]43C)[C@@H]2C1 [Sapogenin 5, Hederagenin] | 4.3
CC1(C)CC[C@]2(C(=O)O)CC[C@]3(C)C(=CC[C@@H]4[C@@]5(C)CC[C@H](O)C(C)(C)[C@@H]5CC[C@]43C)[C@@H]2C1 [Sapogenin 6, Oleanolic acid] | 4.3
